Measured values published in patent US6867236B1, “Method of preventing of delaying the onset and progression of Alzheimer's disease and related disorders” (Duke University, priority 1994, dated 2005).

System: Alzheimer's disease
Experiment: Case-control study of sibships at high risk: odds ratios for age-adjusted risk of Alzheimer's disease with prior drug exposure (Cox proportional hazards models)
Format: in vivo, human
Conditions: for Odds ratio for risk of Alzheimer's disease: COL + AU, simple odds ratio; for effect on risk of Alzheimer's disease in words: drug alone, orthogonal comparison with NSAIDs
Procedure: Briefly, doubly affected sib pairs with Alzheimer's disease onset ages that differed by at least 3 years were studied, as were disease-discordant siblings whose unaffected sib(s) had survived at least 3 years beyond the onset age of the affected sib. Premorbid exposures to steroids, NSAIDs and other treatments were assessed for 186 subjects (91% response rate) by focused retrospective interviews using appropriate blinding and multiple informants when possible. Survival analysis methods were used to compare age-adjusted risk of Alzheimer's disease among sibs who had been exposed or unexposed, before onset, to glucocorticoids, aspirin, non-aspirin NSAIDs, and histamine H2 receptor blockers. […] The odds ratios for steroids, aspirin and non-aspirin NSAIDs fell within the related confidence interval from the prior twin study (Breitner, Neurology 44:227 (1994)).
Doubly affected sib pairs with Alzheimer's disease onset ages that differed by at least 3 years were studied, as were disease-discordant siblings whose unaffected sib(s) had survived at least 3 years beyond the onset age of the affected sib. Diagnoses and ages at onset of Alzheimer's disease were established by consideration of all relevant data, including extensive longitudinal observation, laboratory testing, and autopsy confirmation when available. Arthritis, peptic ulcer disease, and other non-neurological conditions were not considered when making these diagnoses. Subjects or their collateral informants received a letter, followed by a structured telephone interview, that investigated several common medical conditions (arthritis, diabetes, peptic ulcer disease) and treatments (glucocorticoids, nonsteroidal anti-inflammatories, including aspirin, acetaminophen, narcotic analgesics, insulin and oral hypoglycemic drugs, and histamine H2 blocking agents). The interview also sought timing and duration of exposure. The interviewers generally knew which subjects had Alzheimer's disease but were blinded to early- or late-affected status. The respondents were not made aware of the hypothesis under investigation. Collateral informants supplied data for the 107 subjects who had developed Alzheimer's disease. Collateral information was also sought for the remaining subjects; however, it is was necessary to rely on autobiographical data from 20 (26%).
Like dizygous twins, siblings share 50% of their genetic make-up on average. The relation of Alzheimer's disease onset and prior use of anti-inflammatory drugs was therefore studied in a sample of 186 sibs from 45 pedigrees ascertained for genetic linkage studies of late onset Alzheimer's disease (Pericak-Vance et al, Am. J. Hum. Genet. 48:1034 (1991)). The selected sibs were members of onset-discordant doubly affected pairs or disease-discordant pairs meeting criteria described above.
These differences and the association of Alzheimer's disease with the remaining exposures were investigated using Cox proportional hazards models (Cox, J. Roy. Stat. Soc. (Series B) 34:248-275 (1972)) in which the sample was first stratified by sibship. Table 2 reports odds ratios (o.r), the customary measure of risk associated with an exposure in case-control work. The o.r. is ordinarily calculated as the ratio of proportions exposed versus unexposed in the affected and unaffected groups; for conditions like Alzheimer's disease with age-dependent expression (Breitner et al, Am. J. Epidemiol. 128:536-548 (1988)), the o.r. is preferably calculated using proportional hazards or similar models which consider subjects' current age or age at death (i.e., censoring age), or age at onset of Alzheimer's disease. An o.r. of less than 1 implies reduced risk of disease with exposure. […] The apparent effect of both aspirin and NSAIDs increased with duration of exposure; the o.r. with use of NSAIDs for >1 yr. […]

[1] = Table 2, source of data COL + AU (collateral + autobiographical), stratified by sibship
[2] = Table 2, source of data COL only (collateral informants), stratified by sibship, exposure >=1 month
[3] = Table 3, orthogonal comparison, not stratified by sibship, no NSAIDs

Row | Structure (SMILES) | Odds ratio for risk of Alzheimer's disease (Table 2, exposed 1-12 mo.) | Odds ratio for risk of Alzheimer's disease (Table 2, exposed >1 yr.) | Odds ratio for age-adjusted risk of Alzheimer's disease [1] | Odds ratio for age-adjusted risk of Alzheimer's disease [2] | Odds ratio for age-adjusted risk of Alzheimer's disease [3] | effect on risk of Alzheimer's disease in words | estimated odds ratios (o.r.), age-adjusted risk of Alzheimer's disease (sibs exposed or unexposed before onset)
1 | CC(=O)Oc1ccccc1C(=O)O [Aspirin] | 0.625 | 0.369 | 0.343 | 0.349 | 0.508 | weak but similar effect to NSAIDs | 0.35
2 | CC(=O)Nc1ccc(O)cc1 [Acetaminophen] |  |  | 0.104 | 0.157 | 0.192 | comparable but statistically inconclusive effect | 
